Earlier results on three molecules are cited in patent US20070167517A1, “Stabilized derivatives of ascorbic aicd” (Tagra Biotechnologies Ltd., priority 2003, published 2007).

The conditions of series [1]: standard solutions and topical formulations, RP-HPLC.
For series [2] the following is noted: in the human.

For `CCCCCCCCCCCCCCCC(=O)OC[C@H](O)[C@H]1OC(=O)C(O)=C1O` [ascorbyl palmitate, 6-ascorbyl palmitate], the stability result in series [1] is on record as “did not prevent hydrolysis of the molecule”.
For the molecule `O=C1O[C@H]([C@@H](O)CO)C(O)=C1OP(=O)([O-])[O-].[Mg+2]` [magnesium ascorbyl phosphate, magnesium L-ascorbic acid-2-phosphate], the stability entry in series [1] was “very stable”.
For `O=C1O[C@H]([C@@H](O)CO)C(O)=C1O` [ascorbic acid], the half-life result in series [2] was “about 20 days”.
